Experiments:
[1] = cited from earlier work
[2] = system: human aortic vascular smooth muscle cells (HAoSMC); assay: HAoSMC proliferation (BrdU uptake); assay type: cell-based; conditions: serum-supplemented media (5%), 24 hours

Sequence: GLSKGCFGLKLDRIGSMSGLGC [CNP]
- half-life after administration to a mammal [1]: about a minute and a half
- reduced proliferation ([2]; 10^−5 M NP): about 30%
- reduced proliferation ([2]; 10^−6 M NP): about 20%
- reduced proliferation ([2]; 10^−7 M NP): about 20%

Reference: US9079973B2, “Natriuretic polypeptides for reducing restenosis” (Mayo Foundation for Medical Education and Research, priority 2008, dated 2015)
